In patent US4866044A, “Solubilized composition of poorly-soluble pharmaceutical product” (Takeda Chemical Industries, Ltd., priority 1985, dated 1989) one finds solubility and redissolubility data, which are given here for two compounds.

One series is described as follows: physchem. To be noted: water.
For series [1] the following is noted: pH 6.

Take `CCCCCCCCCCCCCCCCCCNC(=O)OCC(COP(=O)([O-])OCC[n+]1ccsc1)OC` (centres unmarked) [Compound [1], 3-(n-Octadecylcarbamoyloxy)-2-methoxypropyl 2-thiazolioethyl phosphate]: the solubility in “physchem” was approximately 100 mg/mL.

For alanine, the redissolubility entry in series [1] is “O (key: O: dissolved within one minute; Δ: dissolved within one to three minutes)”.
